We go through 11 molecules from US8901317B2, “Tryptamine derivatives, their preparation and their use in gastropathy” (Council of Scientific & Industrial Research, priority 2010, dated 2014).

The nature of data set [1]: Ferric reducing antioxidant power (FRAP) assay. The following applies: compound at 10 μM relative to ferrous sulfate; for FRAP Value6 min (μM) M ± SD: 6 min; for FRAP Value65 min (μM) M ± SD: 65 min. Here is the method:
The antioxidant property of different tryptamine derivatives were assessed and compared with the known antioxidants for potency. […] The FRAP assay is based on the measurement of the ability of the substance to reduce Fe^3+ to Fe^2+, greater the reducing ability greater the anti oxidant property. Antioxidants reduce Fe^3+-TPTZ in to blue colored Fe^2+-TPTZ complex, which results in an increase in the absorbance at 595 nm giving a FRAP value. […] Absorbance changes at different time intervals (FIG. 6) as well as at different concentrations (FIG. 7) at time 6 min in the presence of different compounds at 595 nm were measured. FRAP values at 6 min and 65 min were calculated from different tryptamine derivatives and some known antioxidant (Table 1). […] DPPH assay based on the DPPH free radicals scavenging power of the antioxidant molecules. Higher the scavenging power higher will be the antioxidant property.
The assay was performed in a 96-well microplate. FRAP reagent was prepared by mixing of 10 ml acetate buffer (200 mM, pH-3.6), 1 ml of 2,4,6-tris(2-pyridyl)-s-triazine (TPTZ) solution (10 mM in 40 mM HCl) and 1 ml of ferric chloride solution (20 mM) in distilled water. For 1 h the mixture was kept in a water bath at 37° C. In 96-well microplates, 25 μL of the compounds under investigation dissolved (in methanol, some compound dissolved in water) at different concentrations in the range 1-25 μM was placed in triplicate and freshly prepared FRAP solution (175 μL) was added to this sample. A micro plate reader monitored the absorbance at 595 nm at different time intervals for up to 150 min. The absorbance of a mixture 175 μL TRAP sol and 25 μL methanol or water was taken which was subtracted from the absorbance of the samples at each time interval to calculate the absorbance change (ΔA). The FRAP value at time interval t (FRAP valuet) was calculated according to the formula: FRAP valuet(M)=(ΔatFl/ΔatFe^2+)×10^−5 Where ΔatFl is the absorbance change after the time interval t (6 and 65 min) relative to the tested flavonoid at the concentration of 10 μM and ΔatFe^2+ is the absorbance change at the same time interval relative to ferrous sulfate at the same concentration (Pal, C; et al. Free Radic Biol Med, 49(2), 258-267, 2010, Firuzi, O; et al. Biochim. Biophys. Acta 1721:174-184; 2005).

A short description of data set [2]: DPPH free radical scavenging assay. Here is the method:
The antioxidant property of different tryptamine derivatives were assessed and compared with the known antioxidants for potency. A range of different synthesized compounds and known anti oxidants, quercetin, ascorbic acid and gallic acid were analyzed by the FRAP assay. The FRAP assay is based on the measurement of the ability of the substance to reduce Fe^3+ to Fe^2+, greater the reducing ability greater the anti oxidant property. Antioxidants reduce Fe^3+-TPTZ in to blue colored Fe^2+-TPTZ complex, which results in an increase in the absorbance at 595 nm giving a FRAP value. […] Absorbance changes at different time intervals (FIG. 6) as well as at different concentrations (FIG. 7) at time 6 min in the presence of different compounds at 595 nm were measured. FRAP values at 6 min and 65 min were calculated from different tryptamine derivatives and some known antioxidant (Table 1). […] DPPH assay based on the DPPH free radicals scavenging power of the antioxidant molecules. Higher the scavenging power higher will be the antioxidant property. […] This assay was performed in presence of some known antioxidants such as ascorbic acid, quercetin and gallic acid.
2,2-Diphenyl-1-Picrylhydrazyl (DPPH) is a stable free radical that can accept hydrogen radical or an electron and become a stable diamagnetic molecule. The antioxidants can scavenge the DPPH by donating hydrogen as visualized by discoloration of the DPPH radical from purple to yellow (Pal, C; et al. Free Radic Biol Med, 49(2), 258-267; 2010, Ben Farhat, M.; et al. J. Agric. Food Chem. 57:10349-10356; 2009, Han, J; et al. Wei Sheng Yan Jiu 38:596-598; 2009). The assay system contained 1 mL of compounds under investigation dissolved (in methanol, some compound dissolved in water) at different concentrations in the range 10-100 μM solution and 4 ml of DPPH (0.15 mM) in methanol (80% in water v/v) and mixed well. It was allowed to stand for 30 min at 27° C. away from light. Ascorbic acid at the same concentration was taken as positive control. The absorbance of the solution was measured spectrophotometrically at 517 nm and from the decrease of absorption; the antioxidant activity of different tryptamine derivatives were determined.
(Loss of DPPH colour is used to gauge radical scavenging.)

In data set [3] the test system is indomethacin-induced gastric mucosal damage. Briefly: Indomethacin-induced gastric mucosal damage (ulcer index, histology). The following applies: for gastroprotective effect compared with SEGA (3a): 6.9 mg kg^−1 intraperitoneally, indomethacin-induced gastropathy; for Gastric mucosal damage (ulcer index): rats. Format: in vivo, Sprague-Dwaley rats. Here is the method:
Sprague-Dwaley rats (180-220 gm) were used for this study. Each group (control or experimental) of animals was maintained at 24±2° C. with 12 hrs lights and dark cycle. The animals were fasted for 24 hrs before the start of experiments. They were provided with water ad libitum to avoid food-induced increased acid secretion and its effect on gastric lesions. Gastric mucosal ulcer was developed by indomethacin as described (Pal, C; et al. Free Radic Biol Med, 49(2), 258-267; 2010, Biswas, K.; et al. J. Biol. Chem. 278:10993-11001; 2003, Bandyopadhyay, U.; et al. Life Sci. 71:2845-2865; 2002). Briefly, all the animals were divided into control, indomethacin and test compound group. Oral administration of indomethacin at a dose of 48 mg kg^−1 b.w was given to the fasted animals to induce gastric ulcer. […] Control group received vehicle only but no indomethacin. After 4 hrs of indomethacin treatment, the animals were sacrificed under proper euthanasia and stomachs were collected. The mucosal injury was scored as ulcer index as follows: 0=no pathology; 1=one pinhead ulcer. The sum of the total scores divided by the number of animals gave the ulcer index. All the in vivo studies were done in accordance with the institute animal ethical committee guidelines. To see the effect of SEGA on diclofenac induced gastric mucosal injury, gastric mucosal damage was developed by the oral administration of diclofenac (75 mg kg^−1) and the rest of the experiment was carried out in a similar way as described for indomethacin. Diclofenac produced pinhead ulcer like indomethacin and the mucosal injury was scored as ulcer index as described above. Ethanol-induced gastric mucosal injury was developed with oral administration of 1 ml of 50% ethanol (Banerjee, R. K. (2002) Life Sci 71, 2845-2865) and after 4 hrs the animals were sacrificed and cold-restrain stress induced mucosal injury was developed by immobilizing the animals at 4° C. for 3.5 hrs (Banerjee, R. K. (2002) Life Sci 71, 2845-2865, (2003) J Biol Chem 278, 10993-11001).
Stomach tissues from the animals of different groups were washed first washed several times with PBS (pH 7.4) and later fixed in 10% buffered formalin for 12 hrs at 25° C. The formalin-fixed tissues were then dehydrated and embedded in paraffin for preparing semi-thin sections (Maity, P.; et al. J. Biol. Chem. 283:14391-14401; 2008). The semi-thin sections were prepared using a microtome and taken over poly-L-lysine coated glass slide for hematoxylene-eosine staining. The stained sections were observed under microscope (Leica DM-2500, Germany) and were documented by high-resolution digital camera.

The mark [4] stands for this setting: compounds 100 μM, 517 nm (Table 2).
[5] abbreviates: compound 6.9 mg kg^−1 intraperitoneally before indomethacin 48 mg kg^−1 oral.

Each structure is given as a SMILES string.

With `O=c1c(O)c(-c2ccc(O)c(O)c2)oc2cc(O)cc(O)c12` [Quercetin, reference compound], in data set [1], the “FRAP Value6 min (μM) M ± SD” value was determined as 28.11 ± 1.00 µM and the “FRAP Value65 min (μM) M ± SD” value amounted to 48.55 ± 4.85 µM.
On to `O=C(Cc1c[nH]c2ccccc12)NCCc1c[nH]c2ccc(O)cc12` [Compound 2c, N-(2-(5-hydroxy-1H-indol-3-yl)ethyl)-2-(1H-indol-3-yl)acetamide], for which the “Absorbance change (ΔA) at 30 min” value in data set [2] (setting [4]) is listed as 0.14 ± 0.04. Also, in data set [1], the “FRAP Value6 min (μM) M ± SD” value is 2.48 ± 0.10 µM and the “FRAP Value65 min (μM) M ± SD” value is 3.57 ± 0.41 µM.
For the molecule `NCCc1c[nH]c2ccc(OC(=O)c3cc(O)c(O)c(O)c3)cc12` [Compound 4d, 3-(2-aminoethyl)-1H-indol-5-yl 3,4,5-trihydroxybenzoate], the “Absorbance change (ΔA) at 30 min” value in data set [2] (setting [4]) amounted to 0.38 ± 0.07; in data set [2] (concentration 10 μM (Table 3)) it was 0.18 ± 0.01; in data set [2] (concentration 30 μM (Table 3)) it was 0.27 ± 0.03; in data set [2] (concentration 50 μM (Table 3)) it was 0.31 ± 0.05; in data set [2] (concentration 80 μM (Table 3)), 0.33 ± 0.05; in data set [2] (concentration 100 μM (Table 3)), 0.38 ± 0.07. Besides, the “gastroprotective effect compared with SEGA (3a)” value in data set [3] is listed as “lesser gastroprotective effect”. Moreover, the “Gastric mucosal damage (ulcer index)” value in data set [3] (setting [5]) was 41 ± 2.5. Moreover, the “FRAP Value6 min (μM) M ± SD” value in data set [1] is 24.02 ± 1.98 µM. The “FRAP Value65 min (μM) M ± SD” value in data set [1] is 35.40 ± 3.25 µM.
`O=C(Cc1c[nH]c2ccccc12)NCCc1c[nH]c2ccccc12` [Compound 2f, N-(2-(1H-indol-3-yl)ethyl)-2-(1H-indol-3-yl)acetamide]: the “Absorbance change (ΔA) at 30 min” value in data set [2] (setting [4]) is 0.13 ± 0.03. In data set [1], the “FRAP Value6 min (μM) M ± SD” value stood at 2.44 ± 0.24 µM and the “FRAP Value65 min (μM) M ± SD” value came out at 3.33 ± 0.49 µM.
Turning to `O=C(NCCc1c[nH]c2ccccc12)c1cc(O)c(O)c(O)c1` [Compound 3b, N-(2-(1H-indol-3-yl)ethyl)-3,4,5-trihydroxybenzamide], the “Absorbance change (ΔA) at 30 min” value in data set [2] (setting [4]) was found to be 0.31 ± 0.06; in data set [2] (concentration 10 μM (Table 3)), 0.16 ± 0.02; in data set [2] (concentration 30 μM (Table 3)) it was 0.21 ± 0.05; in data set [2] (concentration 50 μM (Table 3)), 0.23 ± 0.04; in data set [2] (concentration 80 μM (Table 3)), 0.28 ± 0.03; in data set [2] (concentration 100 μM (Table 3)), 0.31 ± 0.06. The “gastroprotective effect compared with SEGA (3a)” value in data set [3] is “lesser gastroprotective effect”. In addition, the “Gastric mucosal damage (ulcer index)” value in data set [3] (setting [5]) is given as 42 ± 2. For the same molecule, the “FRAP Value6 min (μM) M ± SD” value in data set [1] was 14.32 ± 0.36 µM. For the same molecule, in data set [1], the “FRAP Value65 min (μM) M ± SD” value stood at 19.65 ± 2.1 µM.
For `COc1ccc2[nH]cc(CCNC(=O)/C=C/c3ccc(O)cc3)c2c1` [Compound 2h, (E)-3-(4-hydroxyphenyl)-N-(2-(5-methoxy-1H-indol-3-yl)ethyl)acrylamide], the “Absorbance change (ΔA) at 30 min” value in data set [2] (setting [4]) was 0.11 ± 0.03. Also, in data set [1], the “FRAP Value6 min (μM) M ± SD” value amounted to 1.87 ± 0.13 µM and the “FRAP Value65 min (μM) M ± SD” value worked out at 2.93 ± 1.43 µM.
As for `COc1ccc2[nH]cc(CCNC(=O)c3cc(O)c(O)c(O)c3)c2c1` [Compound 3c, 3,4,5-trihydroxy-N-(2-(5-methoxy-1H-indol-3-yl)ethyl)benzamide], the “Absorbance change (ΔA) at 30 min” value in data set [2] (setting [4]) amounted to 0.35 ± 0.08; in data set [2] (concentration 10 μM (Table 3)), 0.18 ± 0.02; in data set [2] (concentration 30 μM (Table 3)) it was 0.24 ± 0.03; in data set [2] (concentration 50 μM (Table 3)), 0.28 ± 0.05; in data set [2] (concentration 80 μM (Table 3)), 0.31 ± 0.07; in data set [2] (concentration 100 μM (Table 3)), 0.35 ± 0.08. In data set [3], the “gastroprotective effect compared with SEGA (3a)” value was “lesser gastroprotective effect”. Moreover, in data set [3] (setting [5]), the “Gastric mucosal damage (ulcer index)” value is 39 ± 2. In addition, the “FRAP Value6 min (μM) M ± SD” value in data set [1] worked out at 15.32 ± 0.46 µM. In addition, in data set [1], the “FRAP Value65 min (μM) M ± SD” value was 21.96 ± 2.6 µM.
Consider `O=C(/C=C/c1ccc(O)cc1)NCCc1c[nH]c2ccccc12` [Compound 2e, (E)-N-(2-(1H-indol-3-yl)ethyl)-3-(4-hydroxyphenyl)acrylamide], for which the “Absorbance change (ΔA) at 30 min” value in data set [2] (setting [4]) stood at 0.11 ± 0.02. In data set [1], the “FRAP Value6 min (μM) M ± SD” value amounted to 2.45 ± 0.19 µM and the “FRAP Value65 min (μM) M ± SD” value is 5.60 ± 1.02 µM.
The matching figures for `COc1ccc2[nH]cc(CCNC(=O)Cc3c[nH]c4ccccc34)c2c1` [Compound 2i, 2-(1H-indol-3-yl)-N-(2-(5-methoxy-1H-indol-3-yl)ethyl) acetamide]: 0.12 ± 0.02, 1.94 ± 0.04 µM and 2.5 ± 0.34 µM.
Turning to `COc1ccc2c(c1)c(CC(=O)O)c(C)n2C(=O)c1ccc(Cl)cc1` [Indomethacin, reference compound], the “Gastric mucosal damage (ulcer index)” value in data set [3] (indomethacin 48 mg kg^−1 alone, oral) was found to be 61 ± 3.
As to `O=C1O[C@H]([C@@H](O)CO)C(O)=C1O` [Ascorbic acid, reference compound], in data set [1], the “FRAP Value6 min (μM) M ± SD” value was 15.46 ± 0.07 µM and the “FRAP Value65 min (μM) M ± SD” value was found to be 15.89 ± 2.24 µM.
